The subject of one data set is BT-474. In words: Antiproliferative activity against human BT474 cells after 72 hrs by CellTiter-Glo assay. The data set is classed as functional, cell-based. Conditions: BT-474, 72 h. On the technique in general: Cellular ATP, detected with luciferase, serves as a proxy for viable cell number.
The next data set concerns Calu-3. Kind of data set: Antiproliferative activity against human Calu3 cells after 72 hrs by CellTiter-Glo assay. The data set is classed as functional, cell-based. Particulars: Calu-3, 72 h.
The next data set has as its system A549. Kind of data set: Antiproliferative activity against human A549 cells after 72 hrs by CellTiter-Glo assay. Conditions: A549, 72 h. The data set is classed as functional, cell-based.
The subject of another data set is MCF7. In words: Antiproliferative activity against human MCF7 cells after 72 hrs by CellTiter-Glo assay. The data set is classed as functional, cell-based. Particulars: MCF7, 72 h.
Data set [1] deals with Receptor tyrosine-protein kinase erbB-2 (Homo sapiens) (UniProt P04626). In words: Inhibition of FITC-aminocaproic acid-Arg-(S)Anapa-Phe-OH binding to HER2 domain-4 in human BT474 cells at 0.5 to 200 uM after 45 mins by fluorescence assay. The data set is classed as cell-based.
Data set [2] shares this target. Kind of data set: Binding affinity to HER2 extracellular domain (unknown origin) at 25 to 100 uM by SPR analysis. A general note: Surface plasmon resonance follows binding to a sensor surface in real time, without labels.
For a further data set, the system named is MCF-10A. In words: Antiproliferative activity against human MCF10A cells after 72 hrs by CellTiter-Glo assay. The data set is classed as cell-based.
Data set [3] deals with Receptor tyrosine-protein kinase erbB-2 (Homo sapiens) (UniProt P04626). Kind of data set: Inhibition of FITC-aminocaproic acid-Arg-(S)Anapa-Phe-OH binding to HER2 domain-4 in human BT474 cells after 45 mins by fluorescence assay. It is filed as cell-based.
For data set [4] the target is unchanged. Kind of data set: Inhibition of Stearic acid-Gly-Arg-(S)Anapa-Phe-Asp-Gly-Gly-Gly-Lys-OH (FAM Lys side chain) binding to HER2 domain-4 in human BT474 cells after 45 mins by fluorescence assay. It is filed as cell-based.
The target is the same in data set [5]. Kind of data set: Inhibition of Stearic acid-Gly-Arg-(S)Anapa-Phe-Asp-Gly-Gly-Gly-Lys-OH (FAM Lys side chain) binding to HER2 domain-4 in human BT474 cells at 0.5 to 100 uM after 1 hr by DAPI staining based microscopic method. It is filed as cell-based.
The target is the same in data set [6]. Kind of data set: Binding affinity to HER2 extracellular domain (unknown origin) by SPR analysis.
The target is the same in data set [7]. In words: Binding affinity to HER2 in human BT474 cells assessed as inhibition of HER2:HER3 heterodimerization at 1 to 5 uM after 48 hrs by DAPI staining based proximity ligation assay. The data set is classed as cell-based.
Data set [8] in a line: Stability in human serum after 24 hrs by HPLC analysis. The data set is classed as ADME, cell-free.
A short description of data set [9]: Half life in human serum by HPLC analysis. It is filed as ADME, cell-free.
Data set [10] in a line: Stability in human serum after 24 hrs by MALDI-TOF-MS analysis. The data set is classed as ADME, cell-free.
The target in data set [11] is Receptor tyrosine-protein kinase erbB-2 (Homo sapiens) (UniProt P04626). Kind of data set: Binding affinity to HER2 in human BT474 cells at 0.5 uM after 30 mins by DAPI staining based microscopic method. The data set is classed as cell-based.
For data set [12] the target is unchanged. In words: Binding affinity to HER2 in human BT474 cells assessed as receptor internalization at 0.5 uM after 2 hrs by DAPI/Lysotracker staining based microscopic method. The data set is classed as cell-based.

Each structure is given as a SMILES string. The source made the active and inactive calls. The calls are words filed in the database; no cut-off is given here. Where a SMILES comes first, the peptide text is derived from it. The star is where a group is joined. 6FAM = O=C1OC2(c3ccc(O)cc3Oc3cc(O)ccc32)c2cc(C(=O)*)ccc21; Stearoyl = CCCCCCCCCCCCCCCCCC(=O)*

Sequence of Receptor tyrosine-protein kinase erbB-2 (Homo sapiens) (P04626 whole entry, the tested form may be a part): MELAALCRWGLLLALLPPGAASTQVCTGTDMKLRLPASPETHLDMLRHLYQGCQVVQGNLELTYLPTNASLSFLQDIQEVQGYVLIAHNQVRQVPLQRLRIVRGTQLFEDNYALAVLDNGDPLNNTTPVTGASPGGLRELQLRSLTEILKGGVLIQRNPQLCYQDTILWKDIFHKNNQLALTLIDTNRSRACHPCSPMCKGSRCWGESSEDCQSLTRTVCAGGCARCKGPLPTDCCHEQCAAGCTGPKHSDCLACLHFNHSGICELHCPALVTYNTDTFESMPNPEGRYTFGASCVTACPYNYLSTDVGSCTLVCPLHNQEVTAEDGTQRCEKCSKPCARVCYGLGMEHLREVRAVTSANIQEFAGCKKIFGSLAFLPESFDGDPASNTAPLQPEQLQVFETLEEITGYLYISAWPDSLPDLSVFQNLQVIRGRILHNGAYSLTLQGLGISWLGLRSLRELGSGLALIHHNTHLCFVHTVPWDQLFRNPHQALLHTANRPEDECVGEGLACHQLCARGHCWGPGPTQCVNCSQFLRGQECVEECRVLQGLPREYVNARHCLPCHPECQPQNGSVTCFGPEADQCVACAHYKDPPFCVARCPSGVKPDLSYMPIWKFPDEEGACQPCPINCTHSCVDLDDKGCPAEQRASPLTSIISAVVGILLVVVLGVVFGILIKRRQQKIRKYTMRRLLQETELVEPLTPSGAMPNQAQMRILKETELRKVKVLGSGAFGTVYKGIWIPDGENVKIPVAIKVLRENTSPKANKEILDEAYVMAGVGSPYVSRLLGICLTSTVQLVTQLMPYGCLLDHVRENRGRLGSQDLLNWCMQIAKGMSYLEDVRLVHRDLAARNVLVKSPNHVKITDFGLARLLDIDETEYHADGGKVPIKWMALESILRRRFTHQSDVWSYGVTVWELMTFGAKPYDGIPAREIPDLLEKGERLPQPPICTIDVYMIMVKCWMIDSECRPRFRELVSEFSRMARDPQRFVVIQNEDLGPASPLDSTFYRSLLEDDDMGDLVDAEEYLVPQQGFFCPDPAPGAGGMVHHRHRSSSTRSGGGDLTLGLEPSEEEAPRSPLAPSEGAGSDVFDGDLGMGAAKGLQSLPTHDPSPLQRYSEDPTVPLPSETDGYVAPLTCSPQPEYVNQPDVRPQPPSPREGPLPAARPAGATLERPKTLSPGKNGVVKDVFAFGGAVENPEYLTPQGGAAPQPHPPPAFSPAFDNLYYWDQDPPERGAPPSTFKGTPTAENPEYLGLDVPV

As to `NCCCC[C@H](N)C(=O)Nc1cccc(-c2ccccc2)c1CCC(=O)N[C@@H](Cc1ccccc1)C(=O)O`, the concentration for half-maximal inhibition (IC50) in the data set with BT-474, in the data set on Calu-3, in the data set on A549 and in the data set with MCF7 was more than 35000 nM each time. The inhibition result in data set [1] was “inactive”. Also, the outcome in [2] was inactive.
For `CCCCCCCCCCCCCCCC(=O)N[C@@H](CCCNC(=N)N)C(=O)N[C@@H](CC(=O)N[C@@H](Cc1ccccc1)C(=O)O)c1cccc2ccccc12`, the IC50 was 1400 nM in the data set with BT-474; 1560 nM with Calu-3; 1010 nM in the data set on A549; more than 35000 nM in the data set on MCF7; more than 35000 nM in the data set with MCF-10A.
Compound `CCCCCCCCCCCCCCCC(=O)N[C@@H](CCCNC(=N)N)C(=O)N[C@@H](CC(=O)N[C@@H](CCCCN)C(=O)O)c1cccc2ccccc12` gave a 50% inhibitory concentration (IC50) in the data set on BT-474 of 1400 nM.
With `CCCCCCCCCCCCCCCCCC(=O)N[C@@H](CCCNC(=N)N)C(=O)N[C@@H](CC(=O)N[C@@H](Cc1ccccc1)C(=O)O)c1cccc2ccccc12`, the IC50 in the data set on BT-474 was 1000 nM; with Calu-3, 1460 nM; in the data set with A549, 1170 nM; in the data set with MCF7 it was more than 35000 nM; with MCF-10A, more than 35000 nM. The inhibition result in [3] and in data set [4] was “Dose-dependent effect” each time. In addition, the inhibition entry in data set [5] and in [7] was “Active” each time. The Activity result in data set [6] was “Dose-dependent effect”. The Stability entry in [8] and in data set [10] was “Stable” throughout. The half-life in [9] is 5 h.
`CCCCCCCCCCCCCCCCCC(=O)N[C@@H](CCCNC(=N)N)C(=O)N[C@@H](CC(=O)N[C@@H](CCCCN)C(=O)O)c1cccc2ccccc12` displayed an IC50 with BT-474 of 1200 nM.
Regarding `CCCCCCCCCCCCCCCCCC(=O)NCC(=O)N[C@@H](CCCNC(=N)N)C(=O)N[C@@H](C)C(=O)N[C@@H](C)C(=O)N[C@@H](CC(C)C)C(=O)NCC(=O)NCC(=O)NCC(=O)N[C@@H](CCCCNC(=O)c1ccc2c(c1)C1(OC2=O)c2ccc(O)cc2Oc2cc(O)ccc21)C(=O)O` (Stearoyl-GRAALGGGK(6FAM)-OH), the result in data set [11] and in data set [12] was inactive.

What is called IC50 is the concentration that inhibits the measured activity by half. High values mean a need for much substance, low ones inhibition by little substance. Broadly, the half-life is the time in which the quantity being followed falls by half. A low value points to fast loss.

Values taken from ChEMBL document CHEMBL4257567, “Design of novel lipidated peptidomimetic conjugates for targeting EGFR heterodimerization in HER2 + cancer” (Bioorg Med Chem Lett, 2018).
